# Reference: the SangsterLogP compilation
# Columns and labels:
# [1] = method code SF-AS, from DOI: 10.1111/j.2042-7158.1992.tb14369.x, PMID: 1350635; details: pH 13.0
# [2] = method code SF, from DOI: 10.1111/j.2042-7158.1992.tb14369.x, PMID: 1350635; details: pH 13.0
Compound,logD [1],logD [2]
CC(=O)Nc1ccc(OCC(O)CNC(C)C)c(C(C)=O)c1 (configuration not stated),0.94,–
CNC(=O)COc1ccccc1OCC(O)CNC(C)(C)C (configuration not stated),1.36,–
CC(C)NCC(O)COc1ccccc1C1CC2CCC1C2 (configuration not stated),4.17,–
COc1ccccc1OCC(O)CNC(C)C (configuration not stated),1.69,–
CC(C)NC[C@H](O)COc1ccc(OCCOCCc2ccc(F)cc2)cc1,3.7,–
CC(C)NCC(O)COc1ccccc1C1CC1 (configuration not stated),3.07,–

# More lines, now with the values ahead:
logD [1],logD [2],Compound
1.87,–,CC(C)NCC(O)COc1ccc(COCCOC(C)C)cc1 (configuration not stated)
2.02,–,CC(=O)c1cc2cccc(OCC(O)CNC(C)C)c2o1 (configuration not stated)
2.32,–,C#CCOc1ccccc1OCC(O)CNC(C)(C)C (configuration not stated)
2.81,–,CC(C)NCC(O)COc1ccc(CCOCC2CC2)cc1 (configuration not stated)
–,1.97,CC(C)(C)NCC(O)COc1ccccc1C#N (configuration not stated)
2.3,–,Cc1cc2c(OCC(O)CNC(C)C)cccc2[nH]1 (configuration not stated)
